Source: patent US20220119868A1, “PROFILING RNA-SMALL MOLECULE BINDING SITES WITH OLIGONUCLEOTIDES” (priority 2018, published 2022)

What was measured:
[1] = tested on: BP-SLI RNA (mutated SL I); experiment: Oligonucleotide profiling in vitro, control RNA mutated to remove 8's binding site; format: biochemical, Hepatitis C virus; conditions: complementary oligonucleotide
Source text: Application of an antisense agent (Table 4) and RNase H cleaves the RNA at the desired site. […] Additional control experiments were completed in which the RNA was mutated to remove 8's binding site and the corresponding complementary oligonucleotide to induce RNase H cleavage.
Effect of compounds on HCV replication. […] Cytotoxicity assays. […] Oligonucleotide profiling of target engagement in vitro. […] Primers can be found in Table 4. […] Inhibition of kinases. […] . Figure S7C).

[2] = tested on: SL I site of HCV RNA in replicon cells; experiment: Oligonucleotide profiling of target engagement in cells by RT-qPCR; format: cell-based, Hepatitis C virus
Source text: Given these favorable results in vitro, the competitive cleaving approach was used to map cellular ligand binding sites. […] Previous approaches to map small molecule-RNA binding sites, such as Chemical Cross-Linking and Isolation by Pull-down (Chem-CLIP)59-61 and Small Molecule Nucleic Acid Profiling by Cleavage Applied to RNA (Ribo-SNAP)61, require the synthesis of derivatives of the lead molecules that allow them to cross-link or cleave and RNA target, respectively. […] Guan, L. and Disney, M. D. (2012). Recent advances in developing small molecules targeting RNA. ACS Chem. Biol. 7, 73-86. • 2. Thomas, J. R. and Hergenrother, P. J. (2008). Targeting RNA with small molecules. Chem. Rev. 108, 1171-1224. • 3. Blount, K. F. and Breaker, R. R. (2006). Riboswitches as antibacterial drug targets. Nat. Biotechnol. 24, 1558-1564. • 4. Tenson, T. and Mankin, A. (2006). Antibiotics and the ribosome. Mol. Microbiol. 59, 1664-1677. • 5. Schlunzen, F., Zarivach, R., Harms, J., Bashan, A., Tocilj, A., Albrecht, R., Yonath, A. and Franceschi, F. (2001). Structural basis for the interaction of antibiotics with the peptidyl transferase centre in eubacteria. Nature 413, 814-821. • 6. Hermann, T. (2016). Small molecules targeting viral rna. Wiley Interdiscip. Rev. RNA 7, 726-743. • 7. Ohgushi, M., Kuroki, S., Fukamachi, H., O'Reilly, L. A., Kuida, K., Strasser, A. and Yonehara, S. (2005). […]

O=C(Nc1ccc(C2=NCCN2)cc1)c1cc(C(=O)Nc2ccc(C3=NCCN3)cc2)cc(C(=O)Nc2ccc(C3=NCCN3)cc2)c1 [Compound 8]
effect on antisense/RNase H cleavage of mutated RNA [1]: the extent and pattern of cleavage were similar in the absence and the presence of compound 8 | rescue of ASO-induced cleavage in cells ([2]; Control ASO complementary to a downstream site): does not rescue cleavage | inhibition of ASO-induced cleavage in cells ([2]; antisense oligonucleotide overlapping the 8-binding site (SL I ASO)): inhibited cleavage
